Key:
Type in all cases: in vivo
wild oat (Avena fatua) = assay: Test B pre-/postemergence plant response
Summary of the method: (§1)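 Visual ratings on a 0–100 scale (100 = complete control) were made versus untreated controls 13–15 days after treatment in a greenhouse. Compounds in surfactant-containing non-phytotoxic solvent were applied preemergence to seeds in loam–sand blend or postemergence to 1- to 4-leaf plants (2–18 cm).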

[1] = test system: lambsquarters (Chenopodium album); assay: Test B pre-/postemergence plant response
Summary of the method: as §1

[2] = test system: pigweed (Amaranthus retroflexus); assay: Test B pre-/postemergence plant response
Summary of the method: as §1

[3] = test system: cocklebur (Xanthium strumarium); assay: Test B pre-/postemergence plant response
Summary of the method: as §1

soybean (Glycine max) = assay: Test B pre-/postemergence plant response
Summary of the method: as §1

[4] = test system: bermudagrass (Cynodon dactylon); assay: Test B pre-/postemergence plant response
Summary of the method: as §1

kochia (Kochia scoparia) = assay: Test B pre-/postemergence plant response; details: Preemergence
Summary of the method: as §1

[5] = test system: green foxtail (Setaria viridis); assay: Test B pre-/postemergence plant response
Summary of the method: as §1

[6] = test system: giant foxtail (Setaria faberii); assay: Test B pre-/postemergence plant response
Summary of the method: as §1

[7] = test system: ragweed (common ragweed, Ambrosia elatior); assay: Test B pre-/postemergence plant response
Summary of the method: as §1

[8] = test system: johnsongrass (Sorghum halepense); assay: Test B pre-/postemergence plant response
Summary of the method: as §1

corn (Zea mays) = assay: Test B pre-/postemergence plant response
Summary of the method: as §1

[9] = test system: ducksalad (Heteranthera limosa); assay: Test B flooded paddy test; details: for Plant response rating, Ducksalad: Flood (flooded paddy test), 13 to 15 days
Summary of the method: (§2)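 Ratings are visual, 0–100 (100 = complete control), taken versus untreated controls 13 to 15 days after treatment in the greenhouse. Compound went straight into paddy water held 3 cm above soil, applied to 2-leaf-stage plants of four species.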

[10] = test system: umbrella sedge (Cyperus difformis); assay: Test B flooded paddy test; details: for Plant response rating, Sedge, Umbrella: Flood (flooded paddy test), 13 to 15 days
Summary of the method: as §2

[11] = test system: barnyardgrass (Echinochloa crus-galli); assay: Test B flooded paddy test; details: for Plant response rating, Barnyardgrass: Flood (flooded paddy test), 13 to 15 days
Summary of the method: as §2

rice (Oryza sativa) = assay: Test B flooded paddy test; details: for Plant response rating, Rice: Flood (flooded paddy test), 13 to 15 days
Summary of the method: as §2

[12] = 250 g ai/ha, Preemergence, 0 to 100 scale
[13] = Postemergence, 31 g ai/ha, scale 0 to 100 (0 no effect, 100 complete control)
[14] = Postemergence, 62 g ai/ha, scale 0 (no effect) to 100 (complete control), 13 to 15 days
[15] = Postemergence, 125 g ai/ha, visual rating after 13 to 15 days, scale 0 (no effect) to 100 (complete control)
[16] = Postemergence, 250 g ai/ha, scale 0 to 100
[17] = Preemergence, 31 g ai/ha, scale 0 to 100 (0 no effect, 100 complete control)
[18] = Preemergence, 62 g ai/ha, scale 0 to 100, 0 no effect, 100 complete control
[19] = Preemergence, 125 g ai/ha, 0 to 100 scale
[20] = 250 g ai/ha, flooded paddy test, visual rating on 0 to 100 scale (0 no effect, 100 complete control) after 13 to 15 days
[21] = 31 g ai/ha, scale of 0 to 100 where 0 is no effect and 100 is complete control
[22] = 62 g ai/ha, scale 0 to 100, 0 is no effect, 100 is complete control
[23] = 125 g ai/ha, scale 0 to 100, 0 is no effect, 100 is complete control

Compound: O=C1CCCC([O-])=C1C(=O)c1cnc(-c2ccccc2)n(-c2ccccc2)c1=O.[K+] [Compound 14]
- Plant response rating, Oat, Wild (wild oat (Avena fatua); [12]): 0
- Plant response rating, Oat, Wild (wild oat (Avena fatua); [13]): 30
- Plant response rating, Oat, Wild (wild oat (Avena fatua); [14]): 40
- Plant response rating, Oat, Wild (wild oat (Avena fatua); [15]): 50
- Oat, Wild plant response rating (wild oat (Avena fatua); [16]): 50
- Plant response rating, Oat, Wild (wild oat (Avena fatua); [17]): 0
- Plant response rating, Oat, Wild (wild oat (Avena fatua); [18]): 0
- Oat, Wild plant response rating (wild oat (Avena fatua); [19]): 0
- Plant response rating, Lambsquarters [1, 12]: 100
- Plant response rating, Lambsquarters [1, 13]: 85
- Plant response rating, Lambsquarters [1, 14]: 85
- Plant response rating, Lambsquarters [1, 15]: 85
- Lambsquarters plant response rating [1, 16]: 85
- Plant response rating, Lambsquarters [1, 17]: 100
- Plant response rating, Lambsquarters [1, 18]: 100
- Lambsquarters plant response rating [1, 19]: 100
- Plant response rating, Pigweed [2, 12]: 100
- Plant response rating, Pigweed [2, 13]: 80
- Plant response rating, Pigweed [2, 14]: 80
- Plant response rating, Pigweed [2, 15]: 80
- Pigweed plant response rating [2, 16]: 98
- Plant response rating, Pigweed [2, 17]: 90
- Plant response rating, Pigweed [2, 18]: 98
- Pigweed plant response rating [2, 19]: 100
- Plant response rating, Cocklebur [3, 12]: 95
- Plant response rating, Cocklebur [3, 13]: 80
- Plant response rating, Cocklebur [3, 14]: 90
- Plant response rating, Cocklebur [3, 15]: 90
- Cocklebur plant response rating [3, 16]: 98
- Plant response rating, Cocklebur [3, 17]: 0
- Plant response rating, Cocklebur [3, 18]: 85
- Cocklebur plant response rating [3, 19]: 85
- Plant response rating, Soybean (soybean (Glycine max); [12]): 85
- Plant response rating, Soybean (soybean (Glycine max); [13]): 80
- Plant response rating, Soybean (soybean (Glycine max); [14]): 85
- Plant response rating, Soybean (soybean (Glycine max); [15]): 90
- Soybean plant response rating (soybean (Glycine max); [16]): 90
- Plant response rating, Soybean (soybean (Glycine max); [17]): 25
- Soybean plant response rating (soybean (Glycine max); [19]): 50
- Plant response rating, Bermudagrass [4, 12]: 100
- Plant response rating, Bermudagrass [4, 13]: 70
- Plant response rating, Bermudagrass [4, 14]: 70
- Plant response rating, Bermudagrass ([4]; Postemergence, 125 g ai/ha, scale 0 to 100 (0 no effect, 100 complete control), 13 to 15 days): 80
- Bermudagrass plant response rating [4, 16]: 80
- Plant response rating, Bermudagrass [4, 17]: 70
- Plant response rating, Bermudagrass [4, 18]: 75
- Bermudagrass plant response rating [4, 19]: 100
- Plant response rating, Kochia (kochia (Kochia scoparia); 250 g ai/ha, 0 to 100 scale): 100
- Plant response rating, Kochia (kochia (Kochia scoparia); 31 g ai/ha, scale 0 to 100 (0 no effect, 100 complete control)): 85
- Plant response rating, Kochia (kochia (Kochia scoparia); 62 g ai/ha, scale 0 to 100, 0 no effect, 100 complete control): 100
- Kochia plant response rating (kochia (Kochia scoparia); 125 g ai/ha, 0 to 100 scale): 100
- Plant response rating, Foxtail, Green [5, 12]: 60
- Plant response rating, Foxtail, Green [5, 13]: 45
- Plant response rating, Foxtail, Green [5, 14]: 45
- Plant response rating, Foxtail, Green [5, 15]: 50
- Foxtail, Green plant response rating [5, 16]: 85
- Plant response rating, Foxtail, Green [5, 17]: 0
- Plant response rating, Foxtail, Green [5, 18]: 0
- Foxtail, Green plant response rating [5, 19]: 10
- Plant response rating, Foxtail, Giant [6, 12]: 90
- Plant response rating, Foxtail, Giant [6, 13]: 50
- Plant response rating, Foxtail, Giant [6, 14]: 70
- Plant response rating, Foxtail, Giant [6, 15]: 80
- Foxtail, Giant plant response rating [6, 16]: 95
- Plant response rating, Foxtail, Giant [6, 17]: 0
- Plant response rating, Foxtail, Giant [6, 18]: 10
- Foxtail, Giant plant response rating [6, 19]: 75
- Plant response rating, Ragweed [7, 12]: 90
- Plant response rating, Ragweed [7, 13]: 80
- Plant response rating, Ragweed [7, 14]: 80
- Plant response rating, Ragweed [7, 15]: 85
- Ragweed plant response rating [7, 16]: 98
- Plant response rating, Ragweed [7, 17]: 70
- Plant response rating, Ragweed [7, 18]: 90
- Ragweed plant response rating [7, 19]: 90
- Plant response rating, Johnsongrass [8, 12]: 95
- Plant response rating, Johnsongrass [8, 13]: 45
- Plant response rating, Johnsongrass [8, 14]: 80
- Plant response rating, Johnsongrass [8, 15]: 80
- Johnsongrass plant response rating [8, 16]: 80
- Plant response rating, Johnsongrass [8, 17]: 5
- Plant response rating, Johnsongrass [8, 18]: 30
- Johnsongrass plant response rating [8, 19]: 80
- Plant response rating, Corn (corn (Zea mays); [12]): 10
- Plant response rating, Corn (corn (Zea mays); [13]): 10
- Plant response rating, Corn (corn (Zea mays); [14]): 40
- Plant response rating, Corn (corn (Zea mays); [15]): 45
- Corn plant response rating (corn (Zea mays); [16]): 70
- Plant response rating, Corn (corn (Zea mays); [17]): 0
- Plant response rating, Corn (corn (Zea mays); [18]): 0
- Corn plant response rating (corn (Zea mays); [19]): 0
- Plant response rating, Flood, Ducksalad [9, 20]: 40
- Plant response rating, Ducksalad [9, 21]: 0
- Plant response rating, Ducksalad [9, 22]: 20
- Plant response rating, Ducksalad [9, 23]: 30
- Plant response rating, Flood, Sedge, Umbrella [10, 20]: 40
- Plant response rating, Sedge, Umbrella [10, 21]: 0
- Plant response rating, Sedge, Umbrella [10, 22]: 0
- Plant response rating, Sedge, Umbrella [10, 23]: 0
- Plant response rating, Flood, Barnyardgrass [11, 20]: 0
- Plant response rating, Barnyardgrass [11, 21]: 0
- Plant response rating, Barnyardgrass [11, 22]: 0
- Plant response rating, Barnyardgrass [11, 23]: 0
- Plant response rating, Flood, Rice (rice (Oryza sativa); [20]): 0
- Plant response rating, Rice (rice (Oryza sativa); [21]): 0
- Plant response rating, Rice (rice (Oryza sativa); [22]): 0
- Plant response rating, Rice (rice (Oryza sativa); [23]): 0

From patent publication US8952024B2, “Herbicidal pyrimidone derivatives” (E I du Pont de Nemours and Company, priority 2009, dated 2015)
